Legend:
[1] = tested on: Staphylococcus epidermidis biofilms; assay: Sterilization of S. epidermidis biofilms, minimal exposure time at 22° C. (supravital dye, confirmed by culture); assay type: cell-based; details: 22° C.
From the text: This example compares and contrasts the cidal effectiveness of compositions of the invention with other disinfectants and antibiotics against Staphylococcus epidermidis biofilms, which are frequently observed on the surface of C.A.P.D. peritoneal catheters even in the absence of peritonitis or exit site infections.
A strain of S. epidermidis with characteristic abundant slime production, and derived from a human source, is used to prepare the biofilms. The isolate is fully sensitive in the fluid phase to all commonly used antibiotics as assayed using routine test methods. Aliquots of the bacteria are frozen at -70° C. in 10% glycerol broth or propagated on 5% defibrinated horse blood agar. Standardized biofilms are formed on soda glass microscope slides or slides coated with Silastic® (the basic material of indwelling catheters; see Cecil's, cited above, on page 542), placed in Petri dishes containing 20 ml of tryptone soya broth (Oxoid Ltd., England), seeded with 10^4 cfu S. epidermidis and incubated for 18 hours at 37° C. Reproducible uniform and confluent S. epidermidis biofilms of minimal density are formed.
Antibiotic activity against S. epidermidis biofilms are determined using a supravital dye which acts as an electron acceptor in coupled oxidative systems in biofilm bacteria. The method allows the bacteria to be examined undisturbed within the biofilm matrix in situ. Briefly stated, the biofilms are exposed to antibiotic solutions and incubated at […] for varying periods of time. Positive (viable, 1% peptone water) and negative (sterilized, 4% formol-peptone) controls are included in all experiments. After a designated exposure at 22° C. for varying periods of time between 15 seconds to 6 hours, the biofilms are rinsed twice in sterile water and allowed to drain. They are then placed in a flat agar medium incorporating substantive dyes and incubated at 37° C. for 4 hours, then 24 hours. Viability is assessed visually by a change in dye color and confirmed after 24 hours by mechanically scraping and subsequently culturing the biofilms. Sterilization is indicated by the absence of color changes and confirmed by culture of both intact and mechanically fragmented biofilms. Inhibition of growth is indicated by a lack of color change after a 4-hour incubation and confirmed by a positive color change by 24 hours.

Bacteroides species = assay: Cidal activity of 50 ppm ClO2; assay type: cell-based; details: within one minute
From the text: (§1) This invention provides a quick-acting, broad-spectrum antimicrobial, that is not absorbed systemically because it is rapidly eliminated or degraded. The inventive compositions have the requisite, extended range of antimicrobial action, rapidity of kill and degradability for this application. […] ClO2 reacts with oxidizable bonds of these organisms and other organic matter and, as a result, is reduced to lower oxidation states: initially chlorite and ultimately chloride. The latter is present at high levels in the body (ca. 0.5% of cellular fluids), so that the small amount formed by ClO2 degradation (in the parts per million range) would disappear into that pool. Compatability of these disinfecting peritoneal flush solutions is also appropriate, since the ClO2 is generated or dissolved in solutions which have osmotic pressures that are suitably isotonic with cellular fluids.

[2] = tested on: Escherichia coli and other coliforms; assay: Cidal activity of 50 ppm ClO2; assay type: cell-based; details: within one minute
From the text: as §1

Klebsiella pneumoniae = assay: Cidal activity of 50 ppm ClO2; assay type: cell-based; details: within one minute
From the text: as §1

Pseudomonas aeruginosa = assay: Cidal activity of 50 ppm ClO2; assay type: cell-based; details: within one minute
From the text: as §1

Staphylococcus species = assay: Cidal activity of 50 ppm ClO2; assay type: cell-based; details: within one minute
From the text: as §1

Streptococcus species = assay: Cidal activity of 50 ppm ClO2; assay type: cell-based; details: within one minute
From the text: as §1

[3] = tested on: free radicals generated by xanthine oxidase (XO) on xanthine; assay: Scavenging of free radicals generated by xanthine oxidase on xanthine (ferricytochrome C reduction); assay type: biochemical
From the text: Since recent studies indicate that the superoxide radical is the active form of oxygen in the prolyl and lysyl hydrolyase reactions during collagen synthesis, this example assesses the effects that compositions of the invention have on free radicals.
Free radicals are generated in vitro by the action of xanthine oxidase (XO) on xanthine. The generation of free radicals is monitored by the reduction of ferricytochrome C by the system. The action of chlorine dioxide is compared with the scavenging action of the well known free radical scavengers superoxide dismutase (SOD) and catalase.
The experiments are divided into three groups. In the first group, 50 μmoles of xanthine, 0.0217 units/mg XO, 0.1 mM EDTA are mixed in a total volume of 1.0 ml Hank's Balanced Salt Solution (HBSS). This generated 64 ±8 nmoles oxygen. In the second group, 0.3125 units/mg SOD and 1,300 units catalase are added to the reagents employed in group 1; this yields 19.4 nmoles oxygen. […] In the third group, chlorine dioxide is substituted for the SOD and catalase in the same system; a chlorine dioxide concentration of about 7.5 ppm inhibits free radical formation by 74% and at a concentration of 15 ppm, by 100%.

[4] = Free radical signal by electron spin resonance (ESR); details: One hundred-fold dilutions, within one minute after mixing
Protocol: ClO2 (75 ppm) is generated by mixing 0.25% chlorite and 1.4% lactic acid. One hundred-fold dilutions are tested within one minute after mixing using electron paramagnetic spectroscopy (ESR) and a LKB luminometer.
For the ESR assay, the chlorine dioxide solution is frozen in liquid nitrogen to -167° C. and electron spin resonance analyzed using a Varian E3 instrument.

mammalian tissue = assay: Tolerance by mammalian tissue (eye irrigant, udder infusion, uterine douche); assay type: in vivo, rabbits, cow, mares; details: 50 ppm
From the text: The materials in the table which are as effective as the 50 ppm ClO2 solution are ones that would be considered to be too irritating and/or corrosive for use as an irrigant in a peritoneal cavity.

In the case of `[O][Cl+][O-]` [ClO2, chlorine dioxide], the “Exposure Time (22° C.) for Film Sterilization” value [1] was 5 s, the kill (Bacteroides species) was 6 logs/ml and the kill [2] was 6 logs/ml. It also gave a kill (Klebsiella pneumoniae) of 6 logs/ml, a kill (Pseudomonas aeruginosa) of 6 logs/ml and a kill (Staphylococcus species) of 6 logs/ml. For the same compound, the kill (Streptococcus species) was 6 logs/ml, the “inhibition of free radical formation” value ([3]; 15 ppm chlorine dioxide) was 100% and the “inhibition of free radical formation” value ([3]; about 7.5 ppm chlorine dioxide) was 74%. For the same compound, the “inhibition of free radical formation” value ([3]; in words) was “neutralize the superoxide and related radicals”, the free radical signal [4] was “A strong free radical signal is generated” and the “tolerance by mammalian tissue” value (mammalian tissue) was “well tolerated by mammalian tissue”.

— US5622725A, “Wound disinfection and repair” (Alcide Corporation, priority 1996, dated 1997)
